The results in this text go back to patent US7528138B2, “Pyrazolo[1,5-a]pyrimidines useful as inhibitors of protein kinases” (Vertex Pharmaceuticals Incorporated, priority 2004, dated 2009).

Format in all cases: biochemical
One assay concerns the target T1, JAK3 (Homo sapiens, UniProt P52333).
T1 sequence (P52333 1-1124): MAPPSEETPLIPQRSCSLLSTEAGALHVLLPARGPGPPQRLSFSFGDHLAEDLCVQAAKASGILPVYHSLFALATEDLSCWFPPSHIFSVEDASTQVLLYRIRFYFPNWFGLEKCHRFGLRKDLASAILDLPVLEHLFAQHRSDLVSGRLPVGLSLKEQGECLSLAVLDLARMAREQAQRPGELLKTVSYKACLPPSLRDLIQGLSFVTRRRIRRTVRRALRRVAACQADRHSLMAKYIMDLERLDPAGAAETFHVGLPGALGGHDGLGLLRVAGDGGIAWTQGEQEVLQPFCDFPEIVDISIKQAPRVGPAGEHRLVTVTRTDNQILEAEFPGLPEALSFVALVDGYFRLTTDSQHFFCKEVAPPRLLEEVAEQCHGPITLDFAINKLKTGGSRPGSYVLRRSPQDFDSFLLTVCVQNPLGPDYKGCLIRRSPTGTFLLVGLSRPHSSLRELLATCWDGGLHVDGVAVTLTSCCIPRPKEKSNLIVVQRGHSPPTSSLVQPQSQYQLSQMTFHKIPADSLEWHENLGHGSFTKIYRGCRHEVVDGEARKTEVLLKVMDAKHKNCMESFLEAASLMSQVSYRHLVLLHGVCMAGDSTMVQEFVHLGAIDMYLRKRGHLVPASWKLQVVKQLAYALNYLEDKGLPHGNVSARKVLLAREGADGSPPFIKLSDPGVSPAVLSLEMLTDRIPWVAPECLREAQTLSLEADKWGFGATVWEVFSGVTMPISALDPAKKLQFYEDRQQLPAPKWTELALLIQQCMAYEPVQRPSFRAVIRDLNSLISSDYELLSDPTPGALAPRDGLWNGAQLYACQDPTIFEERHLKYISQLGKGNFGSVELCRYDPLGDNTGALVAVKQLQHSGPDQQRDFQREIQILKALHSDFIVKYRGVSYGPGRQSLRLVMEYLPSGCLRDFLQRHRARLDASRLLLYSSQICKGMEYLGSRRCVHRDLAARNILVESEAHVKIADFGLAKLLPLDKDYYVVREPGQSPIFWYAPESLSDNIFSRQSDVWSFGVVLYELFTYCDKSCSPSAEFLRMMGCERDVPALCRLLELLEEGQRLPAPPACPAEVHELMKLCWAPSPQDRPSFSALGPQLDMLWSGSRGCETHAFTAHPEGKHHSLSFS
The assay is described as follows: JAK3 Inhibition Assay, 33P incorporation. As to conditions: enzyme inhibition data (Ki), Table 11. On the procedure:
Reactions are carried out in a kinase buffer containing 100 mM HEPES (pH 7.4), 1 mM DTT, 10 mM MgCl2, 25 mM NaCl, and 0.01% BSA. Substrate concentrations in the assay are 5 μM ATP (200 uCi/μmole ATP) and 1 μM poly(Glu)4Tyr. Reactions are carried out at 25° C. and 1 nM JAK3. To each well of a 96 well polycarbonate plate is added 1.5 μl of a candidate JAK3 inhibitor along with 50 μl of kinase buffer containing 2 μM poly(Glu)4Tyr and 10 μM ATP. This is then mixed and 50 μl of kinase buffer containing 2 nM JAK3 enzyme is added to start the reaction. After 20 minutes at room temperature (25 C), the reaction is stopped with 50 μl of 20% trichloroacetic acid (TCA) that also contained 0.4 mM ATP. The entire contents of each well are then transferred to a 96 well glass fiber filter plate using a TomTek Cell Harvester. After washing, 60 μl of scintillation fluid is added and ^33P incorporation detected on a Perkin Elmer TopCount.

Another assay addresses T2, Itk (Homo sapiens, UniProt Q08881).
T2 sequence (Q08881 1-620): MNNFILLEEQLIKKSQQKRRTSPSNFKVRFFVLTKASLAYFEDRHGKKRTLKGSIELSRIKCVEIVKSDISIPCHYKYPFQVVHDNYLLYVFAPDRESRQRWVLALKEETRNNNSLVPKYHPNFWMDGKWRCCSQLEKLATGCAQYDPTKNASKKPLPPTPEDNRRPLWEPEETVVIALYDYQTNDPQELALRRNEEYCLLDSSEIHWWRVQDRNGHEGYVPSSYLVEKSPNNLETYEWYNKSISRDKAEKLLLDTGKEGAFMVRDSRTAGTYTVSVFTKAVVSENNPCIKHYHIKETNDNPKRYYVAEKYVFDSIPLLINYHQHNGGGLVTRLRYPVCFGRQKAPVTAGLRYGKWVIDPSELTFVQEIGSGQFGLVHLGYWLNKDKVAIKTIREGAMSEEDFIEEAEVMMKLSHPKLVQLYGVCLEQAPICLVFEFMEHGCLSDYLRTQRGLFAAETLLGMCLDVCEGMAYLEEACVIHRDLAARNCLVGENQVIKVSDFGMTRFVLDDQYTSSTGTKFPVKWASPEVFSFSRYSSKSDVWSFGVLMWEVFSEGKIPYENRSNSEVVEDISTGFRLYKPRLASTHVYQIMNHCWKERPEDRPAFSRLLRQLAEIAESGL
As to the kind of experiment: ITK Inhibition Assay (Radiometric), radioactive-phosphate incorporation. As to conditions: enzyme inhibition data (Ki), Table 11; radiometric or UV assay not stated. On the procedure:
Assays are carried out in a mixture of 20 mM MOPS (pH 7.0), 10 mM MgCl2, 0.1% BSA and 1 mM DTT. Final substrate concentrations in the assay are 7.5 μM [γ-33P]ATP (400 mCi 33P ATP/mmol ATP, Amersham Pharmacia Biotech/Sigma Chemicals) and 3 μM peptide (SAM68 protein D332-443). Assays are carried out at 25° C. in the presence of 50 nM Itk. An assay stock buffer solution is prepared containing all of the reagents listed above, with the exception of ATP and the test compound of interest. 50 μL of the stock solution is placed in a 96 well plate followed by addition of 2 μL of DMSO stock containing serial dilutions of the test compound (typically starting from a final concentration of 50 μM with 2-fold serial dilutions) in duplicate (final DMSO concentration 2%). The plate is pre-incubated for 10 minutes at 25° C. and the reaction initiated by addition of 50 μL [γ-33P]ATP (final concentration 7.5 μM).
The reaction is stopped after 10 minutes by the addition of […] 0.2M phosphoric acid+0.01% TWEEN 20. A multiscreen phosphocellulose filter 96-well plate (Millipore, Cat no. MAPHN0B50) is pretreated with 100 μL 0.2M phosphoric acid +0.01% TWEEN 20 prior to the addition of […] of the stopped assay mixture. The plate is washed with 4×200 μL 0.2M phosphoric acid+0.01% TWEEN 20. After drying, 30 μL Optiphase ‘SuperMix’ liquid scintillation cocktail (Perkin Elmer) is added to the well prior to scintillation counting (1450 Microbeta Liquid Scintillation Counter, Wallac).
Ki(app) data are calculated from non-linear regression analysis of the initial rate data using the Prism software package (GraphPad Prism version 3.0cx for Macintosh, GraphPad Software, San Diego Calif., USA).

In another assay the target is c-Met (Homo sapiens, UniProt P08581). As to the kind of experiment: c-Met Inhibition Assay, coupled enzyme system. The conditions noted are these: enzyme inhibition data (Ki), Table 11. On the procedure:
Compounds are screened for their ability to inhibit c-Met kinase activity using a standard coupled enzyme system (Fox et al., Protein Sci. 1998, 7, 2249). Reactions are carried out in a solution containing 100 mM HEPES (pH 7.5), 10 mM MgCl2, 25 mM NaCl, 300 μM NADH, 1 mM DTT, and 1.5% DMSO. Final substrate concentrations in the assay are 200 μM ATP (Sigma Chemicals, St Louis, Mo.) and 10 μM polyGluTyr (Sigma Chemical Company, St. Louis). Reactions are carried out at 30° C. and 80 nM c-Met. Final concentrations of the components of the coupled enzyme system are 2.5 mM phosphoenolpyruvate, 300 μM NADH, 30 μg/ml pyruvate kinase and 10 μg/ml lactate dehydrogenase.
An assay stock buffer solution is prepared containing all of the reagents listed above with the exception of ATP and a test compound of the present invention. The assay stock buffer solution (175 μl) is incubated in a 96 well plate with 5 μl of the test compound of the present invention at final concentrations spanning 0.006 μM to 12.5 μM at 30° C. for 10 minutes. Typically, a 12-point titration is conducted by preparing serial dilutions (from 10 mM compound stocks) with DMSO of the test compounds of the present invention in daughter plates. The reaction is initiated by the addition of 20 μl of ATP (final concentration 200 μM). Rates of reaction are obtained using a Molecular Devices Spectramax plate reader (Sunnyvale, Calif.) over 10 minutes at 30° C. The Ki values are determined from the rate data as a function of inhibitor concentration.

By Ki is commonly meant a dissociation constant, usually derived from enzyme kinetics or from competition with a known ligand.

Structures are written as SMILES.

Chain of c-Met (P08581 25-1390): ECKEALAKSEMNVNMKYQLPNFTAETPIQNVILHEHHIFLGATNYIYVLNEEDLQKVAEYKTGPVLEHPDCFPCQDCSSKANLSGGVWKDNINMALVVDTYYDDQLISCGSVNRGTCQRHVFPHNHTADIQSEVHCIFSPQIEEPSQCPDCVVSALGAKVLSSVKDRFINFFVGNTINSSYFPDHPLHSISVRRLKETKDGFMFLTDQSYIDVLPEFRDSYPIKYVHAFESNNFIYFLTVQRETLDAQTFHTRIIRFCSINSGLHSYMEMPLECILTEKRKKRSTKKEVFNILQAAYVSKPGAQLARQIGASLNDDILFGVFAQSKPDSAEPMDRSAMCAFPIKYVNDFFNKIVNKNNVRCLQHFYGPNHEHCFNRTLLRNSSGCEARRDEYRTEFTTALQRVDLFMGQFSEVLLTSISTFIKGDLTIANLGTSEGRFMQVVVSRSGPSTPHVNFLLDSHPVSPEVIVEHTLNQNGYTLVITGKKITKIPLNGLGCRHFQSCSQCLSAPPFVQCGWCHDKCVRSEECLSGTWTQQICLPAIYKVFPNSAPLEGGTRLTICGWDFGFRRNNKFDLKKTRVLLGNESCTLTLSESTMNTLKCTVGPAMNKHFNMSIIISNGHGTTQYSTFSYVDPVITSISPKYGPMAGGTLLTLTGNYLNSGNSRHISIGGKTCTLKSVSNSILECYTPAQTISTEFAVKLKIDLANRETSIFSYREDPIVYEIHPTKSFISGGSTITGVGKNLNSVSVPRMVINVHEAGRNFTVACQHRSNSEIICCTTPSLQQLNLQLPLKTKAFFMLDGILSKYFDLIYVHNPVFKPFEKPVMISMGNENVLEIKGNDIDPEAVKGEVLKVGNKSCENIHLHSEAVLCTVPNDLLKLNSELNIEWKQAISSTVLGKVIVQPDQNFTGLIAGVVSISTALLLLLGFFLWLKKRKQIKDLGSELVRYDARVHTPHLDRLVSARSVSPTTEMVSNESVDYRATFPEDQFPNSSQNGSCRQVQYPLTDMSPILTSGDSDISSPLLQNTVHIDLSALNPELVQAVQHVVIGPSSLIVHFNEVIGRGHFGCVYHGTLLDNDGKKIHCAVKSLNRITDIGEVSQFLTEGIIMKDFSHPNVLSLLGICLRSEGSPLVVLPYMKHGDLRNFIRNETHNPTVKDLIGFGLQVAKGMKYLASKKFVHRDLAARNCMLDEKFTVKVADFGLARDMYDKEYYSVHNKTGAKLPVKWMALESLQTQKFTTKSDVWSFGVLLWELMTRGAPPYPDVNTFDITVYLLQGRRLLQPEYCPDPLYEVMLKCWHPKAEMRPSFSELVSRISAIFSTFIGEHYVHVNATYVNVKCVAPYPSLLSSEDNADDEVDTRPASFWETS

In the case of `Cc1ccn2nc(N)c(-c3ccccc3)c2n1` [Compound V-1], the inhibition constant Ki at JAK3 is above 5 µM.

Consider `COc1cccc(OC)c1-c1cnc2c(-c3ccccn3)c(N)nn2c1` [Compound V-3], for which the Ki on Itk is 0.5 to 5 µM; on JAK3, above 5 µM; at c-Met it was 0.5 to 5 µM.

Take `Cc1cccc(C)c1-c1cnc2c(-c3ccccn3)c(N)nn2c1` [Compound V-4]: the Ki at Itk was 0.5 to 5 µM; on JAK3, above 5 µM; at c-Met, 0.5 to 5 µM.

On to `Nc1nn2cc(-c3ccccc3C(F)(F)F)cnc2c1-c1ccccn1` [Compound V-5], for which the Ki was 0.5 to 5 µM on Itk, above 5 µM at JAK3 and 0.5 to 5 µM on c-Met.

For the molecule `CC(=O)c1ccccc1-c1cnc2c(-c3ccccn3)c(N)nn2c1` [Compound V-6], the Ki on Itk, on JAK3 and on c-Met was 0.5 to 5 µM throughout.

Consider `Cc1ccccc1-c1cnc2c(-c3ccccn3)c(N)nn2c1` [Compound V-7], for which the Ki at Itk was 0.5 to 5 µM; on JAK3, above 5 µM; at c-Met, 0.5 to 5 µM.

Regarding `Nc1nn2cc(-c3ccccc3O)cnc2c1-c1ccccn1` [Compound V-8], the Ki is 0.5 to 5 µM at Itk, above 5 µM at JAK3 and 0.5 to 5 µM at c-Met.

On to `CCc1ccccc1-c1cnc2c(-c3ccccn3)c(N)nn2c1` [Compound V-9], for which the Ki on Itk is 0.5 to 5 µM; on JAK3, above 5 µM; at c-Met it was 0.5 to 5 µM.

As to `N#Cc1ccccc1-c1cnc2c(-c3ccccn3)c(N)nn2c1` [Compound V-10], the Ki at Itk is 0.5 to 5 µM; on JAK3 it was above 5 µM; on c-Met, 0.5 to 5 µM.

As to `Nc1nn2cc(-c3ccccc3C(=O)O)cnc2c1-c1ccccn1` [Compound V-11], the Ki at Itk is 0.5 to 5 µM; at JAK3, above 5 µM; on c-Met it was 0.5 to 5 µM.

Take `Nc1nn2cc(-c3ccccc3C=O)cnc2c1-c1ccccn1` [Compound V-12]: the Ki at Itk was 0.5 to 5 µM; on JAK3, above 5 µM; at c-Met, 0.5 to 5 µM.

In the case of `Nc1nn2cc(-c3ccccc3F)cnc2c1-c1ccccn1` [Compound V-13], the inhibition constant Ki at Itk was 0.5 to 5 µM; at JAK3, above 5 µM; on c-Met, 0.5 to 5 µM.

Consider `Nc1nn2cc(-c3ccccc3-c3ccccc3)cnc2c1-c1ccccn1` [Compound V-15], for which the Ki is 0.5 to 5 µM at Itk, above 5 µM on JAK3 and 0.5 to 5 µM at c-Met.

On to `CS(=O)(=O)Nc1ccccc1-c1cnc2c(-c3ccccn3)c(N)nn2c1` [Compound V-16], for which the Ki was 0.5 to 5 µM on Itk, above 5 µM at JAK3 and 0.5 to 5 µM on c-Met.

As to `Nc1nn2cc(-c3cccc(C(=O)N4CCC(N5CCCC5)CC4)n3)cnc2c1-c1ccccn1` [Compound V-121], the Ki at Itk was 0.5 to 5 µM; on JAK3, above 5 µM.

For `Nc1nn2cc(-c3ccc(N4CCCC4)nc3)cnc2c1-c1ccccn1` [Compound V-143], the Ki is 0.5 to 5 µM at Itk and above 5 µM on JAK3.

As for `Nc1nn2cc(-c3ccc(C=O)cc3)cnc2c1-c1ccccn1` [Compound V-193], at Itk, the Ki is below 0.5 µM.

Consider `N#Cc1ccc(-c2cnc3c(-c4ccccn4)c(N)nn3c2)cc1` [Compound V-196], for which the Ki at Itk is below 0.5 µM.

As to `Nc1nn2cc(-c3ccc(CCl)cc3)cnc2c1-c1ccccn1` [Compound V-203], the inhibitory constant (Ki) at Itk was below 0.5 µM.

With `Nc1nn2cc(-c3cccc(CCl)c3)cnc2c1-c1ccccn1` [Compound V-210], at Itk, the inhibition constant (Ki) is below 0.5 µM.

With `COc1ccc(-c2cn3nc(N)c(-c4ccccn4)c3nc2C(F)(F)F)cc1` [Compound V-218], the Ki at Itk fell in the range of 0.5 to 5 µM.

Take `COc1ccc(-c2cnc3c(-c4ccc(C)cn4)c(N)nn3c2)cc1` [Compound V-220]: on Itk, the Ki is 0.5 to 5 µM.

With `Cc1cnc2c(-c3cc(N[C@H](C)c4ccccc4)ncn3)c(N)nn2c1` [Compound V-300], the Ki is 0.5 to 5 µM at Itk and below 0.5 µM at c-Met.

Turning to `Cc1cnc2c(-c3cc(N[C@@H](C)c4ccccc4)ncn3)c(N)nn2c1` [Compound V-301], the Ki on Itk and at c-Met was 0.5 to 5 µM each time.

Regarding `CCN(CC)C(=O)C1CCCN(c2cc(-c3c(N)nn4cc(C)cnc34)ncn2)C1` (centres unmarked) [Compound V-338], the Ki on Itk was 0.5 to 5 µM; at c-Met, below 0.5 µM.
